Reference: patent publication US20230043863A1, “HETEROAROMATIC DERIVATIVES FOR USE AS REGULATOR, PREPARATION METHOD THEREFOR AND USE THEREOF” (JIANGSU HANSOH PHARMACEUTICAL GROUP CO., LTD., priority 2018, published 2023)

Legend:
[1] = biological target: JAK1 (Homo sapiens, UniProt P23458); assay: JAK kinase activity inhibition, TR-FRET (JAK1); type: biochemical; details: TR-FRET kinase assay
Procedure: (§1) Experimental objective: The objective of this test is to test the inhibitory effect of the compound on JAK kinase activity.
(§2) Experimental method: the fluorescence resonance energy transfer (TR-FRET) method was used to test the inhibitory effect of the compound on JAK kinase activity, and the half inhibitory concentration IC50 of the compound on JAK kinase activity was obtained.
(§3) Kinase reaction was carried out in a white 384-well plate (PerkinElmer). 1-5 μL of different concentrations of the compound diluted with DMSO and ddH2O was added into each well, and 1-5 μL of the corresponding solvent was added to the positive control wells, followed by addition of 0.1-20 nM JAK kinase solution diluted with 1-5 μL of kinase buffer (HEPES 50-250 mM, MgCl2 5-20 mM, etc.) was added to each well. 1-5 μL of kinase buffer was added to the negative control well. 1-5 μL of substrate mixture containing peptide substrate and ATP was added. The plate was incubated at room temperature for 0.5-5 hours. […], EDTA and detection solution containing labeled antibody was added, and then the plate was incubated at room temperature for another 1-24 hours. The fluorescence signal value at about 620 nm and 665 nm of each well was measured by BioTek Synergy H1 plate reader, and the inhibition rate was calculated by the fluorescence signal value. According to the inhibition rate of different concentrations, the IC50 of the compound was obtained by curve fitting.
(§4) The percentage inhibition data of the wells treated with the compound was calculated with the positive control wells (DMSO control wells) and negative control wells (no kinase added) on the plate {% inhibition rate=100-[(test compound value-negative control value)]/(Positive control value-negative control value)×100}. IC50 value was calculated by using GraphPad prism to fit the data of different concentrations and corresponding percentage inhibition rates to a 4-parameter non-linear logic formula.

[2] = biological target: TYK2 (Homo sapiens, UniProt P29597); assay: JAK kinase activity inhibition, TR-FRET (TYK2); type: biochemical; details: TR-FRET kinase assay
TYK2, sequence (P29597 whole entry): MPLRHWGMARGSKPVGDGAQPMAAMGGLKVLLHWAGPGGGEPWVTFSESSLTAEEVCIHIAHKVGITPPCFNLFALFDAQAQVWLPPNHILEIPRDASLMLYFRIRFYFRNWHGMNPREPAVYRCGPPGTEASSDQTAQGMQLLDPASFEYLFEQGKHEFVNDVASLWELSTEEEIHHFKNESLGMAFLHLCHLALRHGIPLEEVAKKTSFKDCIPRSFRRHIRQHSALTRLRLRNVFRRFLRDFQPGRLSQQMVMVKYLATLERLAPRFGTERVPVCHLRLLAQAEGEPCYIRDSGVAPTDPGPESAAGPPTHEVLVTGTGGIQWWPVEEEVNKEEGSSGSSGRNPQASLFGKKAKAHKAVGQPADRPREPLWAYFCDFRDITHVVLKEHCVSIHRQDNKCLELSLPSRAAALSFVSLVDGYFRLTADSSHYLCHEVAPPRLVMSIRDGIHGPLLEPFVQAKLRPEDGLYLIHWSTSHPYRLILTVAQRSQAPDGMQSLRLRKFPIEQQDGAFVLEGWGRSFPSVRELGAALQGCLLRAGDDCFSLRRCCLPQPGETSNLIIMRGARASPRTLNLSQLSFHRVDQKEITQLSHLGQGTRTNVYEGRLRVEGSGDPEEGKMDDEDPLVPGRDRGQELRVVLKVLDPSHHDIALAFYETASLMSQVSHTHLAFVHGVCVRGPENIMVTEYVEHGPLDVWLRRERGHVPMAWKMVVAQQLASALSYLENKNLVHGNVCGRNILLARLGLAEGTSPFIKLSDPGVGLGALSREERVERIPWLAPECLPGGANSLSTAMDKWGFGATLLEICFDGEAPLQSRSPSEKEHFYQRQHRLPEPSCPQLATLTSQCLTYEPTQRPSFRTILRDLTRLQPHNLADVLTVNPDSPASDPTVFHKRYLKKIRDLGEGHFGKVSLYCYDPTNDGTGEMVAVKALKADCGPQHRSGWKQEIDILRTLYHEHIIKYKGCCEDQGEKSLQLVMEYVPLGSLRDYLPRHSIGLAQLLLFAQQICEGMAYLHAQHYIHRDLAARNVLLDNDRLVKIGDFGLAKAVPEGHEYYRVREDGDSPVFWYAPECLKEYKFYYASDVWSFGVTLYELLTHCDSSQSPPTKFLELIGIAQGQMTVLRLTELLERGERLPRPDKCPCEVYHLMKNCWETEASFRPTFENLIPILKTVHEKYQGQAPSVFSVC
Procedure: as §1, §2, §3, §4

JAK1, sequence (P23458 whole entry): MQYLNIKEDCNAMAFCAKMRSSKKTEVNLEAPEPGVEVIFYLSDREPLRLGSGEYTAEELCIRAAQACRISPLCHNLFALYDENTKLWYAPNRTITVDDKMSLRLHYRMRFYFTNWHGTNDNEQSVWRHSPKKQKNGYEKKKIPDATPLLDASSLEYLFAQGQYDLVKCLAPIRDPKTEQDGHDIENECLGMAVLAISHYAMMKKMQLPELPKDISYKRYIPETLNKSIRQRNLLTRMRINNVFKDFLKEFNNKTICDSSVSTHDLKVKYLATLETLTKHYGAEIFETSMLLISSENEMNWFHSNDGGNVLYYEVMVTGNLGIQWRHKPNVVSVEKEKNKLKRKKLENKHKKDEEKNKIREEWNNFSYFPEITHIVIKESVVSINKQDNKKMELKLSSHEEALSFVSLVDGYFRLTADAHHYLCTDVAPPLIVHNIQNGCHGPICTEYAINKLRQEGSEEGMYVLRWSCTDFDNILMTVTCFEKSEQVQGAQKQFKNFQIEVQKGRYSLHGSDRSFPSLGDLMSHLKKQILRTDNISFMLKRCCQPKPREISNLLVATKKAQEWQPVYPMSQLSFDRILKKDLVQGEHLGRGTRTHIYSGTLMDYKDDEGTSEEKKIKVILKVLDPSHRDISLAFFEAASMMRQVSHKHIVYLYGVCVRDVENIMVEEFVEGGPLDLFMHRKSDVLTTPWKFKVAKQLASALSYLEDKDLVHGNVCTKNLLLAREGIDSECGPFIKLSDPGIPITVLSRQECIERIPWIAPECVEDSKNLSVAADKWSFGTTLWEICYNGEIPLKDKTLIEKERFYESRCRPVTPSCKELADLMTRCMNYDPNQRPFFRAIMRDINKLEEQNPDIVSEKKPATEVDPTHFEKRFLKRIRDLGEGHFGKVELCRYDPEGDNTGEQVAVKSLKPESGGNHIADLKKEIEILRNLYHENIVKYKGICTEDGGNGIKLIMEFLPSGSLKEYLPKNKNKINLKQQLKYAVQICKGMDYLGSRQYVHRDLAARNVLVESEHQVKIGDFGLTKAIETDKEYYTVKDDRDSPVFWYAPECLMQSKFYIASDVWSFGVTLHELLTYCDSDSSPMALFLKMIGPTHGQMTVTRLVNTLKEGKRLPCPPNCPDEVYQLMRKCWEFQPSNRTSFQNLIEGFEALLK

Row | IC50 [1] | IC50 [2] | SMILES
1 | 4.03 nM | 10.7 nM | N#CCCN1[C@@H]2CC[C@H]1C[C@H](Nc1nc(Nc3cc[nH]n3)cc3ncccc13)C2 [Embodiment 6, 3-((3-exo)-3-((7-((1H-pyrazol-3-yl)amino)-1,6-diazanaphthalen-5-yl)amino)-8-azabicyclo[3.2.1]oct-8-yl)propionitrile]
2 | 30.6 nM | > 100 nM | N#CCCN1[C@@H]2CC[C@H]1C[C@H](Nc1nc(Nc3cc(F)[nH]n3)cc3ncccc13)C2 [Embodiment 9, 3-((3-exo)-3-((7-((5-fluoro-1H-pyrazol-3-yl)amino)-1,6-diazanaphthalen-5-yl)amino)-8-azabicyclo[3.2.1]oct-8-yl)propionitrile]
3 | 2.71 nM | 10.1 nM | N#CCCN1[C@@H]2CC[C@H]1C[C@H](Nc1nc(Nc3cc(C4CC4)[nH]n3)cc3ncccc13)C2 [Embodiment 12, 3-((3-exo)-3-((7-((5-cyclopropyl-1H-pyrazol-3-yl)amino)-1,6-diazanaphthalen-5-yl)amino)-8-azabicyclo[3.2.1]oct-8-yl)propionitrile]
4 | 2.23 nM | 40.7 nM | N#CCCN1[C@@H]2CC[C@H]1C[C@H](Nc1nc(Nc3cc(CO)[nH]n3)cc3ncccc13)C2 [Embodiment 19, 3-((3-exo)-3-((7-((5-(hydroxymethyl)-1H-pyrazol-3-yl)amino)-1,6-diazanaphthalen-5-yl)amino)-8-azabicyclo[3.2.1]oct-8-yl)propionitrile]
5 | 1.63 nM | 4.57 nM | Cn1cnc(Nc2cc3ncccc3c(N[C@@H]3C[C@H]4CC[C@@H](C3)N4CCC#N)n2)c1 [Embodiment 25, 3-((3-exo)-3-((7-((1-methyl-1H-imidazol-4-yl)amino)-1,6-diazanaphthalen-5-yl)amino)-8-azabicyclo[3.2.1]oct-8-yl)propionitrile]
6 | 48.6 nM | > 100 nM | CC(C)(O)c1cnc(Nc2cc3ncccc3c(N[C@@H]3C[C@H]4CC[C@@H](C3)N4CCC#N)n2)s1 [Embodiment 31, 3-((3-exo)-3-((7-((5-(e2-hydroxypropan-2-yl)thiazol-2-yl)amino)-1,6-diazanaphthalen-5-yl)amino)-8-azabicyclo[3.2.1]oct-8-yl)propionitrile]
7 | 5.6 nM | 22.2 nM | N#CCCN1[C@@H]2CC[C@H]1C[C@H](Nc1nc(Nc3ncc(C(N)=O)s3)cc3ncccc13)C2 [Embodiment 35, 2-((5-(((3-exo)-8-(2-cyanoethyl)-8-azabicyclo[3.2.1]oct-3-yl)amino)-1,6-diazanaphthalen-7-yl)amino)thiazol-5-formamide]
8 | 2.94 nM | 9.49 nM | Cc1cc(Nc2nc(N[C@@H]3C[C@H]4CC[C@@H](C3)N4CCC#N)c3cc[nH]c3n2)n[nH]1 [Embodiment 39, 3-((3-exo)-3-((2-((5-methyl-1H-pyrazol-3-yl)amino)-7H-pyrrolo[2,3-d]pyrimidin-4-yl)amino)-8-azabicyclo[3.2.1]oct-8-yl)propionitrile]
9 | 0.24 nM | 0.24 nM | Cc1cc(Nc2nc(N[C@@H]3C[C@H]4CC[C@@H](C3)N4CCC#N)nc3[nH]ncc23)n[nH]1 [Embodiment 51, 3-((3-exo)-3-((4-((5-methyl-1H-pyrazol-3-yl)amino)-1H-pyrazolo[3,4-d]pyrimidin-6-yl)amino)-8-azabicyclo[3.2.1]oct-8-yl)propionitrile]
10 | 2.95 nM | 5.77 nM | Cc1cc(Nc2cc3nccn3c(N[C@@H]3C[C@H]4CC[C@@H](C3)N4CCC#N)n2)n[nH]1 [Embodiment 79, 3-((3-exo)-3-((7-((5-methyl-1H-pyrazol-3-yl)amino)imidazo[1,2-c]pyrimidin-5-yl)amino)-8-azabicyclo[3.2.1]oct-8-yl)propionitrile]
11 | 35.1 nM | > 100 nM | Cc1cc(Nc2nc(N[C@@H]3C[C@H]4CC[C@@H](C3)N4CCC#N)c3ccccc3n2)n[nH]1 [Embodiment 87, 3-((3-exo)-3-((2-((5-methyl-1H-pyrazol-3-yl)amino)quinazolin-4-yl)amino)-8-azabicyclo[3.2.1]oct-8-yl)propionitrile]
